# Source: ChEMBL document CHEMBL1641546, “The discovery and structure-activity relationships leading to CE-156811, a difluorophenyl cyclopropyl fluoroether: a novel potent antibacterial analog derived from hygromycin A” (Bioorg Med Chem Lett, 2011)
# Activity calls are given as the source filed them. No cut-off for these calls is given here.
# Key:
# Staphylococcus aureus [1] = test: Antibacterial activity against Staphylococcus aureus 1095; assay type: functional
# Enterococcus faecium [2] = test: Antibacterial activity against Enterococcus faecium 1022; assay type: functional
# Streptococcus pneumoniae [3] = test: Antibacterial activity against Streptococcus pneumoniae 1016; assay type: functional
# Enterococcus faecalis [4] = test: Antibacterial activity against Enterococcus faecalis 1085; assay type: functional
# Enterococcus faecium [5] = test: Antibacterial activity against multidrug-resistant Enterococcus faecium; assay type: functional
# Streptococcus pneumoniae [6] = test: Antibacterial activity against penicillin-resistant Streptococcus pneumoniae; assay type: functional
# Streptococcus pneumoniae [7] = test: Antibacterial activity against Streptococcus pneumoniae infected in po dosed in vivo lung model administered bid for 3 day; assay type: functional; conditions: 72 h, read-out: PD50
# [8] = tested on: Staphylococcus epidermidis; test: Antibacterial activity against methicillin-sensitive Staphylococcus epidermidis; assay type: functional
# Enterococcus faecalis [9] = test: Antibacterial activity against multidrug-resistant Enterococcus faecalis; assay type: functional
# Staphylococcus aureus [10] = test: Antibacterial activity against methicillin-sensitive Staphylococcus aureus; assay type: functional
# Streptococcus pyogenes [11] = test: Antibacterial activity against Streptococcus pyogenes infected in po dosed in vivo acute model administered bid for 1 day; assay type: functional; conditions: 24 h, read-out: PD50
# Enterococcus faecalis [12] = test: Antibacterial activity against Enterococcus faecalis infected in po dosed in vivo acute model administered bid for 1 day; assay type: functional; conditions: 24 h, read-out: PD50
# Staphylococcus aureus [13] = test: Antibacterial activity against methicillin-resistant Staphylococcus aureus; assay type: functional
# Enterococcus faecium [14] = test: Antibacterial activity against Enterococcus faecium infected in po dosed in vivo acute model administered bid for 1 day; assay type: functional; conditions: 24 h, read-out: PD50
# Staphylococcus aureus [15] = test: Antibacterial activity against glycopeptide-intermediate Staphylococcus aureus; assay type: functional
# Enterococcus faecalis [16] = test: Antibacterial activity against Enterococcus faecalis infected in sc dosed in vivo acute model administered bid for 1 day; assay type: functional; conditions: 24 h, read-out: PD50
# [17] = Volume of distribution at steady state in rat; assay type: ADME, organism-based; conditions: in vivo, read-out: Vdss
# [18] = Clearance in rat; assay type: ADME, organism-based; conditions: in vivo
# Enterococcus faecium [19] = test: Antibacterial activity against Enterococcus faecium infected in sc dosed in vivo acute model administered bid for 1 day; assay type: functional; conditions: 24 h, read-out: PD50
# [20] = Oral bioavailability in rat at 10 mg/kg, po and 5 mg/kg, iv; assay type: ADME, organism-based; conditions: in vivo
# [21] = Volume of distribution at steady state in monkey; assay type: ADME, organism-based, Macaca mulatta; conditions: rhesus monkey, in vivo; read-out: Vdss
# [22] = Half life in monkey; assay type: ADME, organism-based, Macaca mulatta; conditions: rhesus monkey, in vivo
# [23] = Half life in rat; assay type: ADME, organism-based; conditions: in vivo
# Streptococcus pneumoniae [24] = test: Antibacterial activity against Streptococcus pneumoniae infected in sc dosed in vivo lung model administered bid for 3 day; assay type: functional; conditions: 72 h, read-out: PD50
# [25] = Half life in dog; assay type: ADME, organism-based, Canis lupus familiaris; conditions: in vivo
# [26] = Oral bioavailability in mouse; assay type: ADME, organism-based; conditions: in vivo
# Streptococcus pyogenes [27] = test: Antibacterial activity against Streptococcus pyogenes infected in sc dosed in vivo acute model administered bid for 1 day; assay type: functional; conditions: 24 h, read-out: PD50
# [28] = Clearance in mouse; assay type: ADME, organism-based; conditions: in vivo
# [29] = Clearance in dog; assay type: ADME, organism-based, Canis lupus familiaris; conditions: in vivo
# [30] = Half life in mouse; assay type: ADME, organism-based; conditions: in vivo
# [31] = Volume of distribution at steady state in mouse; assay type: ADME, organism-based; conditions: in vivo, read-out: Vdss
# [32] = Clearance in monkey; assay type: ADME, organism-based, Macaca mulatta; conditions: rhesus monkey, in vivo
# [33] = Volume of distribution at steady state in dog; assay type: ADME, organism-based, Canis lupus familiaris; conditions: in vivo, read-out: Vdss
# Staphylococcus aureus [34] = test: Antibacterial activity against Staphylococcus aureus infected in sc dosed in vivo acute model administered bid for 1 day; assay type: functional; conditions: 24 h, read-out: PD50
structure (smiles),measurement,setting,value
C/C(=C\c1cc(F)c(OCCC(F)F)cc1F)C(=O)N[C@@H]1[C@H](O)[C@@H](O)[C@H]2OCO[C@H]2[C@@H]1O,MIC,Staphylococcus aureus [1],12.5 µg/mL
same,MIC,Enterococcus faecium [2],3.13 µg/mL
same,MIC,Streptococcus pneumoniae [3],1.56 µg/mL
same,MIC,Enterococcus faecalis [4],12.5 µg/mL
C/C(=C\c1cc(F)c(OCCF)cc1F)C(=O)N[C@@H]1[C@H](O)[C@@H](O)[C@H]2OCO[C@H]2[C@@H]1O,MIC,Staphylococcus aureus [1],50 µg/mL
same,MIC,Enterococcus faecium [2],25 µg/mL
same,MIC,Streptococcus pneumoniae [3],6.2 µg/mL
same,MIC,Enterococcus faecalis [4],25 µg/mL
C/C(=C\c1cc(F)c(OCC2CCC2)cc1F)C(=O)N[C@@H]1[C@H](O)[C@@H](O)[C@H]2OCO[C@H]2[C@@H]1O,MIC,Staphylococcus aureus [1],12.5 µg/mL
same,MIC,Enterococcus faecium [2],6.2 µg/mL
same,MIC,Streptococcus pneumoniae [3],6.2 µg/mL
same,MIC,Enterococcus faecalis [4],12.5 µg/mL
CC(=O)NC[C@H]1CN(c2ccc(N3CCOCC3)c(F)c2)C(=O)O1 [LINEZOLID],MIC90,Enterococcus faecium [5],2 µg/mL
same,MIC90,Streptococcus pneumoniae [6],1 µg/mL
same,ED50,Streptococcus pneumoniae [7],10 mg/kg
same,MIC90,[8],1 µg/mL
same,MIC90,Enterococcus faecalis [9],1 µg/mL
same,MIC90,Staphylococcus aureus [10],2 µg/mL
same,ED50,Streptococcus pyogenes [11],3 mg/kg
same,ED50,Enterococcus faecalis [12],3 mg/kg
same,MIC90,Staphylococcus aureus [13],1 µg/mL
same,ED50,Enterococcus faecium [14],4 mg/kg
same,MIC90,Staphylococcus aureus [15],0.5 µg/mL
CCOc1cc(F)c(/C=C(\C)C(=O)N[C@@H]2[C@H](O)[C@@H](O)[C@H]3OCO[C@H]3[C@@H]2O)cc1F,MIC,Staphylococcus aureus [1],100 µg/mL
same,MIC,Enterococcus faecium [2],12.5 µg/mL
same,MIC,Streptococcus pneumoniae [3],inactive
same,MIC,Enterococcus faecalis [4],25 µg/mL
C/C(=C\c1cc(F)c(OCCC(C)(C)F)cc1F)C(=O)N[C@@H]1[C@H](O)[C@@H](O)[C@H]2OCO[C@H]2[C@@H]1O,MIC,Staphylococcus aureus [1],100 µg/mL
same,MIC,Enterococcus faecium [2],50 µg/mL
same,MIC,Streptococcus pneumoniae [3],25 µg/mL
same,MIC,Enterococcus faecalis [4],100 µg/mL
C/C(=C\c1cc(F)c(OCC(C)F)cc1F)C(=O)N[C@@H]1[C@H](O)[C@@H](O)[C@H]2OCO[C@H]2[C@@H]1O (some centres not stated),MIC,Staphylococcus aureus [1],6.25 µg/mL
same,MIC,Enterococcus faecium [2],3.13 µg/mL
same,MIC,Streptococcus pneumoniae [3],60.2 µg/mL
same,MIC,Enterococcus faecalis [4],60.2 µg/mL
C/C(=C\c1cc(F)c(OCC(F)C2CC2)cc1F)C(=O)N[C@@H]1[C@H](O)[C@@H](O)[C@H]2OCO[C@H]2[C@@H]1O (some centres not stated),MIC,Staphylococcus aureus [1],1.56 µg/mL
same,MIC,Enterococcus faecium [2],1.6 µg/mL
same,MIC,Streptococcus pneumoniae [3],0.4 µg/mL
same,MIC,Enterococcus faecalis [4],1.6 µg/mL
C/C(=C\c1cc(F)c(OC[C@H](F)C2CC2)cc1F)C(=O)N[C@@H]1[C@H](O)[C@@H](O)[C@H]2OCO[C@H]2[C@@H]1O,MIC90,Enterococcus faecium [5],1 µg/mL
same,MIC90,Streptococcus pneumoniae [6],0.5 µg/mL
same,ED50,Enterococcus faecalis [16],10 mg/kg
same,Vd,[17],0.5 L/kg
same,clearance,[18],10.5 mL/min/kg
same,ED50,Enterococcus faecium [19],8 mg/kg
same,bioavailability,[20],56%
same,Vd,[21],0.59 L/kg
same,half-life,[22],1 h
same,MIC90,[8],0.25 µg/mL
same,half-life,[23],1.3 h
same,ED50,Streptococcus pneumoniae [24],23 mg/kg
same,MIC90,Enterococcus faecalis [9],0.5 µg/mL
same,half-life,[25],1.9 h
same,bioavailability,[26],55%
same,ED50,Streptococcus pyogenes [27],3 mg/kg
same,MIC90,Staphylococcus aureus [10],1 µg/mL
same,clearance,[28],12.1 mL/min/kg
same,clearance,[29],5.4 mL/min/kg
same,half-life,[30],1.4 h
same,Vd,[31],0.52 L/kg
same,clearance,[32],8.6 mL/min/kg
same,MIC90,Staphylococcus aureus [13],0.5 µg/mL
same,Vd,[33],0.71 L/kg
same,ED50,Staphylococcus aureus [34],4 mg/kg
same,MIC90,Staphylococcus aureus [15],0.125 µg/mL
C/C(=C\c1cc(F)c(OCCO)cc1F)C(=O)N[C@@H]1[C@H](O)[C@@H](O)[C@H]2OCO[C@H]2[C@@H]1O,MIC,Staphylococcus aureus [1],100 µg/mL
same,MIC,Enterococcus faecium [2],> 100 µg/mL
same,MIC,Streptococcus pneumoniae [3],inactive
same,MIC,Enterococcus faecalis [4],> 100 µg/mL
C/C(=C\c1cc(F)c(OCC2(F)CCC2)cc1F)C(=O)N[C@@H]1[C@H](O)[C@@H](O)[C@H]2OCO[C@H]2[C@@H]1O,MIC,Staphylococcus aureus [1],6.2 µg/mL
same,MIC,Enterococcus faecium [2],6.2 µg/mL
same,MIC,Streptococcus pneumoniae [3],3.1 µg/mL
same,MIC,Enterococcus faecalis [4],6.2 µg/mL
C/C(=C\c1cc(F)c(OCCCF)cc1F)C(=O)N[C@@H]1[C@H](O)[C@@H](O)[C@H]2OCO[C@H]2[C@@H]1O,MIC,Staphylococcus aureus [1],1.56 µg/mL
same,MIC,Enterococcus faecium [2],0.78 µg/mL
same,MIC,Streptococcus pneumoniae [3],2 µg/mL
same,MIC,Enterococcus faecalis [4],1.56 µg/mL
